One series has as its system patterned hPSC-CMs. Description: Fluorometric cellular ROS / NO / superoxide detection assay in patterned hPSC-CMs. In kind it is cell-based, human. Particulars: patterned cells. How it is done: PGC1-α is known to perform a central controlling role in global oxidative metabolism through induction of mitochondrial biogenesis and tuning of the intrinsic metabolic properties of mitochondria_ENREF_35. […] Based on this understanding, a fluorometric cellular ROS detection assay was performed on unpatterned and patterned hPSC-CMs to determine whether upregulation of the PGC1-α protein in patterned cells had any notable impact on oxidative stress. FIGS. 8A-8F show the effect of nanotopography on expression of oxidative stress markers in cultured hPSC-CMs. […] Samples analyzed were patterned cells treated with an NO scavenger (NO−), patterned cells treated with an NO inducer (NO+), untreated unpatterned cells, and untreated patterned cells. […] No difference was observed between flat and patterned samples. […] Samples analyzed were patterned cells treated with an ROS inhibitor (ROS−), patterned cells treated with an ROS inducer (ROS+), untreated unpatterned cells, and untreated patterned cells. […] […] A significant difference was also observed between flat and patterned samples. In all presented data, *p<0.05.

Series [1] has as its system hPSC-CM monolayers. Description: MEA field potential recording (FPDc, arrhythmia) of hPSC-CM monolayers on flat MEAs and nanoMEAs. The source says:
Median difference in beat interval (ΔBI), mean ΔBI, and the standard deviation of the ΔBI were compared in order to provide quantification of baseline arrhythmic properties in line with previously published methods.
The ability to pattern individual wells within a multiwell MEA plate enabled assessment of multiple doses across both surface conditions within a single device, thereby increasing throughput for such comparative studies. Verapamil was first examined as a negative control compound.
FIG. 12A depicts representative traces (averaged across 10 beats) recorded from hPSC-CM monolayers on flat MEAs and subjected to increasing doses of verapamil. FIG. 12B depicts representative traces recorded from hPSC-CM monolayers on nanoMEAs and subjected to increasing doses of verapamil. FIG. 12C depicts normalized dose response curve illustrating the effect for increasing concentrations of verapamil on the field potential durations corrected for beat rate (FPDc) of unpatterned and patterned hPSC-CMs.
[…] depicts representative traces recorded from hPSC-CM monolayers on flat MEAs and subjected to increasing doses of cisapride. […] depicts representative traces recorded from hPSC-CM monolayers on nanoMEAs and subjected to increasing doses of cisapride. FIG. 12F depicts normalized dose response curve illustrating the effect of increasing concentrations of cisapride on the FPDc of unpatterned and patterned hPSC-CMs.
The mechanism by which bepridil prolongs QT is yet to be fully elucidated. However, in addition to regulating Ca^2+ release, it is known that bepridil competes with cTnI for troponin C binding sites, thereby altering Ca^2+ sensitivity in exposed cells. […] FIG. 12G depicts representative traces recorded from hPSC-CM monolayers on flat MEAs and subjected to increasing doses of bepridil. FIG. 12H depicts representative traces recorded from hPSC-CM monolayers on nanoMEAs and subjected to increasing doses of bepridil. FIG. 12I depicts normalized dose response curve illustrating effect of increasing concentrations of bepridil on the FPDc of unpatterned and patterned hPSC-CMs.

Series [2] has as its system hPSC-CM monolayers. The experiment in a line: MEA conduction velocity (TCV, LCV) across hPSC-CM monolayers on flat and nanotopographically-patterned MEAs. In kind it is cell-based, human. Particulars: for IC50: Homo sapiens, longitudinal conduction velocity, read-out: IC50 from LCV data. The source says:
Additionally, interrogation of monolayer culture by MEA facilitates assessment of conduction velocity in a manner that is difficult when using single cell analysis methods, such as patch clamp electrophysiology. For all propagation experiments discussed herein, longitudinal conduction dictates the vertical orientation on the MEA as all nanopatterns were oriented to run vertically during pattern generation. FIG. 6I depicts measurement of conduction velocity (CV) across hPSC-CM monolayers on flat and nanotopographically-patterned MEAs. Conduction was measured specifically in both the transverse (TCV) and longitudinal (LCV) orientations and underlying nanotopography was organized to run longitudinally. In all presented data, *p<0.03, **p<0.003, ***p<0.001. […] Furthermore, longitudinal conduction velocities measured from patterned cells were substantially faster than similar measurements taken from flat controls, as well as global (non-directional) conduction velocity measurements. Specifically, longitudinal conduction velocity measured from patterned cells was recorded as 32.73 cm/s±9.51, whereas flat controls produced longitudinal and global conduction speeds of 10.32 cm/s±2.62 and […], respectively.
In cardiac tissue, it is known to exert a strong conduction blocking effect, inhibiting action potential propagation and in turn affecting synchronous contraction of the tissue.
Dose response curves were calculated from analysis of propagation speeds in both the transverse (TCV) and longitudinal (LCV) directions. The R^2 values for TCV and LCV curve fits were 0.23 and 0.11, respectively. […] The R^2 values for TCV and LCV curve fits were 0.21 and 0.28, respectively.
Furthermore, the inconsistency of the propagation waves on these surfaces led to substantial variability in measured values across experimental repeats, making it difficult to construct well-fitted dose response curves. […] Residual values indicate the vertical distance (in Y units; in this case % change in conduction velocity) of the measured points from the fit line.

Another series deals with 3D cardiac tissues. Description: Field potential duration of 3D cardiac tissues on nanoMEA. In kind it is cell-based. Conditions: increasing doses, 3D patterned versus 2D unpatterned and 2D patterned, 21 days culture.
Series [3] deals with HCM hPSC-CMs (MYH7 R663H variant). Description: Depolarizing spike slope of HCM patient-derived hPSC-CMs on flat and patterned MEAs. In kind it is cell-based, human. Conditions: 1 μM, 30 minutes, patterned HCM cells. The source says:
Hypertrophic cardiomyopathy (HCM) manifests as a thickening of the myocardial tissue, typically due to mutations in genes encoding specific sarcomeric proteins.
FIG. 14A depicts an immunostained image of hPSC-CMs obtained from HCM patients and maintained on flat Nafion substrates. FIG. 14B depicts an immunostained image of hPSC-CMs obtained from an unaffected family member related to the examined HCM patient and maintained on flat Nafion substrates. FIG. 14C depicts an immunostained image of hPSC-CMs obtained from HCM patients and maintained on patterned Nafion substrates. FIG. 14D depicts an immunostained image of hPSC-CMs obtained from an unaffected family member related to the examined HCM patient and maintained on patterned Nafion substrates. FIG. 14E depicts quantification of sarcomere length measured from HCM and familial control hPSC-CMs maintained on flat and patterned Nafion substrates. FIG. 14F depicts quantification of z-band width measured from HCM and familial control hPSC-CMs maintained on flat and patterned Nafion substrates. FIG. 14G depicts representative QRS complex traces collected from HCM hPSC-CMs on flat and patterned MEAs. FIG. 14H depicts fold-change in average spike slope (Q-R angle) measured across 30 beats from normal and HCM hPSC-CMs on flat and patterned MEAs. […]

Setting [4] is: unpatterned and patterned cells, increasing doses.

Like-named read-outs stand apart in the source and are kept apart here.

Experimental for 3D cardiac tissues: FIG. 15 depicts engineered cardiac tissue responses to treatment with increasing doses of the hERG channel blocker cisapride on 2D unpatterned, 2D patterned and 3D patterned cell cultures. […] In this experiment, cells are first plated onto a nanoMEA substrate in a 4 μL droplet of medium. 17,500 cells are resuspended in this droplet and allowed to adhere to the substrate for 1 hour. At this point, a further 17,500 cells in 2 μL of medium are plated on top of the existing droplet and allowed to adhere to the first layer of cells. This process is repeated 2 more times to form 4 layers of cells on top of the patterned substrate. Cells on the first layer align in parallel with the underlying substrate and subsequent layers align in parallel with the layer below. Cardiomyocytes are mixed with cardiac fibroblasts at a ratio of 10 cardiomyocytes to 1 fibroblast. An hour after the last plating, the MEA wells are flooded with additional medium to maintain the cells and the constructs are then cultured out to 21 days before being used for drug screening assessment.

For the molecule `N=C(N)NCCC[C@H](N)C(=O)O` [L-arginine], the “pixel intensity, NO detection reagent” value in the series on patterned hPSC-CMs was “significantly higher than all other groups”.

Take `CC(=O)N[C@@H](CS)C(=O)O` [N-acetyl-L-cysteine]: in the series with patterned hPSC-CMs, the “pixel intensity, oxidative stress detection reagent” value is recorded as “significantly lower than all other groups examined, with the exception of the patterned samples” and the “pixel intensity, superoxide detection reagent” value was “significantly lower than all other groups”.

Turning to `Cn1c2cccc(=O)c-2nc2ccccc21` [Pyocyanin], in the series on patterned hPSC-CMs, the “pixel intensity, oxidative stress detection reagent” value is reported as “significantly higher values then all other groups” and the “pixel intensity, superoxide detection reagent” value is on record as “significantly higher than all other groups”.

As to `CC(C)COCC(CN(Cc1ccccc1)c1ccccc1)N1CCCC1` (stereo not shown) [bepridil], in the series on hPSC-CM monolayers [1], the “change in FPDc” value is “not significantly different from baseline” and the “effect on FPDc” value is listed as “significant prolongation of FPDc”. Further, the “change in FPDc from baseline” value in the series with hPSC-CM monolayers [1] (1 μM, flat cells) was determined as 7%. Further, the “increase of FPDc from baseline” value with hPSC-CM monolayers [1] (1 μM, patterned cells) was “roughly 20%”.

The IC50 is the concentration needed to halve the response being measured. As for `CC1(C)[C@@H](OC(=O)CCC(=O)O)CC[C@]2(C)[C@H]3C(=O)C=C4[C@@H]5C[C@@](C)(C(=O)O)CC[C@]5(C)CC[C@@]4(C)[C@]3(C)CC[C@@H]12` [carbenoxolone], the figures for the IC50 with hPSC-CM monolayers [2] (flat hPSC-CM monolayers) and in the series with hPSC-CM monolayers [2] (nanotopographically-patterned hPSC-CM monolayers) were 398 nM and 14.7 nM, respectively. Further, the “effect on conduction speeds” value in the series on hPSC-CM monolayers [2] (in vitro, nanoMEA platform) is “significantly reduced conduction speeds”.

In the case of `COc1cc(N)c(Cl)cc1C(=O)NC1CCN(CCCOc2ccc(F)cc2)CC1OC` (stereo not shown) [cisapride], the “effect on FPDc / field potential” value in the series on hPSC-CM monolayers [1] is on record as “significant prolongation of the field potential”. For the same molecule, in the series with hPSC-CM monolayers [1] (1 μM, cells on both substrates), the FPDc prolongation is reported as approximately 50%. Besides, in the series on 3D cardiac tissues, the “field potential duration prolongation, 3D versus 2D cultures” value is “significantly stronger reactions”.

With `COc1ccc(CCN(C)CCCC(C#N)(c2ccc(OC)c(OC)c2)C(C)C)cc1OC` (stereo not shown) [verapamil], in the series with hPSC-CM monolayers [1] (setting [4]), the arrhythmogenic effect entry was “no notable arrhythmogenic effect” and the “effect on FPDc / field potential” value is “significant shortening of FPDc”. Also, the “effect on depolarizing spike slope” value in series [3] was “improved patterned HCM spike slopes”.

Take c-PTIO: the “pixel intensity, NO detection reagent” value in the series with patterned hPSC-CMs is given as “significantly lower than all other groups”.

Values taken from patent US20200055041A1, “DEVICE, SYSTEM AND METHODS FOR ELECTROPHYSIOLOGICAL INTERROGATION OF CELLS AND TISSUES” (Nanosurface Biomedical, Inc., priority 2017, published 2020).
